Measured values: US7915272B2 (priority 2006, dated 2011)
Counter-ions that a name gives are not always drawn.

Target: α7-subtype of nicotinic receptors (Rattus norvegicus, UniProt Q05941)
Assay: biochemical
Format: binding

Sequence of α7-subtype of nicotinic receptors (Q05941 23-502): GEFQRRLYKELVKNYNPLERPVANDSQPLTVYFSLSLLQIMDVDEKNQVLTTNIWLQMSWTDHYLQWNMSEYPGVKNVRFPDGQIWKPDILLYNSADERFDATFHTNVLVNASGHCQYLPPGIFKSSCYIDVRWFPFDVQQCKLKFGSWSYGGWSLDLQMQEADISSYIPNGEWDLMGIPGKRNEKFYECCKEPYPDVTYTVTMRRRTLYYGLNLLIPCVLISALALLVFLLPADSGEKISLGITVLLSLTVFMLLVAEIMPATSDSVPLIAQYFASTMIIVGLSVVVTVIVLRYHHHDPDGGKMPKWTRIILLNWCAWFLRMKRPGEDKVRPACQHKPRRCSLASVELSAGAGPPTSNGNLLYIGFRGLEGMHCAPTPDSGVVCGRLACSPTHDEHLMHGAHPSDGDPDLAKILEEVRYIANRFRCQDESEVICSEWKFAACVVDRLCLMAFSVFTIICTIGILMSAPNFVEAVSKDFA

For `O=C(Nc1cnc(N2CCN3CCC2CC3)nc1)c1ccccc1F` [Compound 1, N-[2-(1,4-Diaza-bicyclo[3.2.2]non-4-yl)-pyrimidin-5-yl]-2-fluoro-benzamide hydrochloric acid salt], the IC50 was under 0.1 µM.
